Experimental data from patent publication US20080242681A1, “N-4-(6-(Hetero)Aryl-Pyrimidin-4-Ylaminophenyl)-Benzenesulfonamides as Kinase Inhibitors” (Altana Pharma AG, priority 2004, published 2008).
Structures can show the parent of a compound that is named as a salt.

Assays:
PKA = target: T1, PKA (Homo sapiens, UniProt P17612); assay: Protein Kinase A assay (SPA); assay type: biochemical; conditions: human recombinant PKA, read-out: IC50, inhibition of PKA
T1 construct: purchased Panvera
Method: (§1) The compounds of formula 1 are tested for their activity on different protein kinases and PKC isoforms using a scintillation proximity assay (SPA, Amersham International plc). ^33P-labeled peptides are captured onto streptavidin coated yttrium silicate SPA beads. β-particles, emitted from the captured ^33P-labeled substrate in close proximity to the bead are able to excite the scintillant, resulting in the generation of quantifiable light. The assay is performed in a 96-well polystyrene microtiterplate (1450-514, Isoplates, Wallac, Turku, Finland). The reaction mixture (50 μl) contains 10 μl of the test compound together with 10 μl of the relevant kinase, diluted in the relevant dilution buffer, 5 μl of 10 μM phorbol myristate acetate (PMA) in H2O, 5 μl of 1.6 mM phosphatidylserine (Sigma-Aldrich Chemie GmbH, Stein-heim, Germany) in 20 mM Tris/HCL buffer pH 7.4, 5 μl of 0.3% BSA in H2O, 5 μl of 30 μM relevant substrate and 10 μl of 5 μM ATP and 0.1 μCi of ^33P-ATP (Amersham, Freiburg, Germany) in 200 mM Tris/HCL pH 7.5 and 200 mM MgCl2. Incubation is performed for 40 min at room temperature (RT) without shaking. Reaction is stopped by adding 150 μl of cold stop solution containing 10 mM ATP, 5 mM EGTA pH 7.5, 0.1% Triton X-100 and 0.2 mg streptavidin coated yttrium silicate SPA beads (Amersham, RPNQ 0012). The sealed plate is incubated for 60 min at RT. Thereafter the MTP is counted in a Microbeta Jet (Wallac). IC50 measurement is performed on a routine basis by incubation a serial dilution of inhibitor at concentrations ranging between 0.01 and 100 μM according to the method described above. Background values are the signals of the reaction mixture without addition of the relevant kinase and are subtracted from all values. 100% values are the signals of the reaction mixture without addition of inhibitors.
Human recombinant PKA was obtained from Panvera and is used in a scintillation proximity assay described in Section A.1. […] Thereafter the MTP is counted in a Microbeta Jet (Wallac). […] IC50 values are calculated from the graph by sigmoidal curve fitting.

responder T cells = assay: Mixed lymphocyte reaction (MLR), T cell proliferation; assay type: cell-based; conditions: [3H]thymidine incorporation after 48 h, read-out: IC50, inhibition of MLR-mediated T-cell proliferation
Method: For MLR cultures 4×10^5 responder T cells are incubated in duplicates with 2×10^5 mitomycin C-treated allogeneic stimulator T cells in a total volume of 200 μl RPMI 1640 medium supplemented with 10% FCS, 2 mM L-glutamine, 100 U/ml penicillin and 100 μg/ml streptomycin (Gibco Life Technologies) in 96 well tissue culture plates (655180, flat bottom, Greiner). Cells are maintained at 37° C. in a humidified atmosphere of 5% CO2. After 48 h of growth, cells are pulsed with 1 μCi [^3H]thymidine and incorporation of [^3H]thymidine is measured with a Topcount radioactive counter (Packard). To investigate the effect of a test compound on MLR-mediated T cell proliferation six three-fold dilution steps in duplicates per test compound are performed (final DMSO concentration 0.1%). Low control values are the proliferation of responder cells alone; high controls are from mixed lymphocyte cells without any test samples. Low controls are subtracted from all values. The inhibition obtained in the presence of a test compound is calculated as percent Inhibition of the high control. The concentration of test compounds resulting in 50% inhibition (IC50) is determined from the dose-response curves. The examples 91, 128, 133 and 137 inhibit MLR-mediated T-cell proliferation in this assay with an IC50<1 μM.

PKCε = target: T2, PKCε (Homo sapiens, UniProt Q02156); assay: Protein Kinase C ε assay (SPA); assay type: biochemical; conditions: human recombinant PKCε, PKCη pseudosubstrate, read-out: IC50, inhibition of PKC ε
T2 construct: purchased Panvera
T2 sequence (Q02156 1-737): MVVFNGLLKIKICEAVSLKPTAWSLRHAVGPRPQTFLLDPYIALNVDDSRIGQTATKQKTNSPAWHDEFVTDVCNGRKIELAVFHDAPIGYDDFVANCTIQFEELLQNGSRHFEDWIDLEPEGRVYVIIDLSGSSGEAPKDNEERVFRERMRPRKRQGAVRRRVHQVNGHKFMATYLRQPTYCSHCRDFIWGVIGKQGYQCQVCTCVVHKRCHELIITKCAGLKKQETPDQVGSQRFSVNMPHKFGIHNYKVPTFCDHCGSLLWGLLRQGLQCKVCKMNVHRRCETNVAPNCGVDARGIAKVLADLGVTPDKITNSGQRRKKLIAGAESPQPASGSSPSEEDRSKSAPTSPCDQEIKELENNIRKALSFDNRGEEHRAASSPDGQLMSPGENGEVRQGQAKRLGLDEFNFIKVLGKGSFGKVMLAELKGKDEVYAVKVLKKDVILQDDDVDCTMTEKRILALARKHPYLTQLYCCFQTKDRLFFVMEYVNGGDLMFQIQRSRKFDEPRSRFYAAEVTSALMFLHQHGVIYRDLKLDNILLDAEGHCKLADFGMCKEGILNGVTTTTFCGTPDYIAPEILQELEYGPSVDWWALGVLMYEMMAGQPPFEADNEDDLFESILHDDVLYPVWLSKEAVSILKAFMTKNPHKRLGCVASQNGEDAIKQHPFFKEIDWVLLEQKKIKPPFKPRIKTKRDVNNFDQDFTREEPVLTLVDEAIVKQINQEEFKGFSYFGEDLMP
Method: as §1
Dependent on the efficacy of the inhibitors In the various test systems, corresponding IC50 values are calculated from concentration-inhibition curves by nonlinear regression analysis using the program GraphPad Prism (GraphPad Software Inc., San Diego, Calif.).
Human recombinant PKCε was obtained from Panvera and is used under the assay conditions as described above (Section A.1). The enzyme is diluted in PKC dilution buffer containing 1 mM Hepes pH 7.4, 0.5 mM DTT and 0.001% Triton X-100. The kinase reaction is performed with the biotinylated PKCη pseudosubstrate solved in H2O.

PKCδ = target: T3, PKCδ (Homo sapiens, UniProt Q05655); assay: Protein Kinase C δ assay (SPA); assay type: biochemical; conditions: human recombinant PKCδ, PKCη pseudosubstrate, read-out: IC50, inhibition of PKC δ
T3 construct: purchased Panvera
T3 sequence (Q05655 whole entry): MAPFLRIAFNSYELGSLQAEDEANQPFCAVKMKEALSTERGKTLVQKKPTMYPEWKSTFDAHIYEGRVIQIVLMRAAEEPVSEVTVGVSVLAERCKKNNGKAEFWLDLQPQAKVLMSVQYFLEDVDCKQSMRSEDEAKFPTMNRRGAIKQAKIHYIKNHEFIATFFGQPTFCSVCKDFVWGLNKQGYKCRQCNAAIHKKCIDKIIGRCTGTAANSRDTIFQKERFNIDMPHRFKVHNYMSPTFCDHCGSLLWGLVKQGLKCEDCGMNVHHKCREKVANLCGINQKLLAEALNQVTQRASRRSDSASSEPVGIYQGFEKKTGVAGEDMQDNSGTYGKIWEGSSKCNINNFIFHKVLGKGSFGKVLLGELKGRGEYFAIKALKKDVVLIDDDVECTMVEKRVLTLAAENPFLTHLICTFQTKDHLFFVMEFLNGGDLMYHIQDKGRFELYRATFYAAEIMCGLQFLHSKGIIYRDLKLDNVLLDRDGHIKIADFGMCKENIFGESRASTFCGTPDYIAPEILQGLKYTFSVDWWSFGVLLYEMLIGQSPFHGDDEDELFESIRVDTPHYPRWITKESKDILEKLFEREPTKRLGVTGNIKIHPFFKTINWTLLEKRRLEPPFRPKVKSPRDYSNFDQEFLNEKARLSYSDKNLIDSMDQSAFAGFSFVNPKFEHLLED
Method: as §1
(§2) Dependent on the efficacy of the inhibitors In the various test systems, corresponding IC50 values are calculated from concentration-inhibition curves by nonlinear regression analysis using the program GraphPad Prism (GraphPad Software Inc., San Diego, Calif.). […]

PKCι = target: T4, PKCι (Homo sapiens, UniProt P41743); assay: Protein Kinase C ι assay (SPA); assay type: biochemical; conditions: human recombinant PKCι from Sf21 insect cells, absence of PMA and phosphatidylserine, read-out: IC50, inhibition of PKC ι
T4 construct: made in house; host or cells: Sf21 insect cells
T4 sequence (P41743 1-596): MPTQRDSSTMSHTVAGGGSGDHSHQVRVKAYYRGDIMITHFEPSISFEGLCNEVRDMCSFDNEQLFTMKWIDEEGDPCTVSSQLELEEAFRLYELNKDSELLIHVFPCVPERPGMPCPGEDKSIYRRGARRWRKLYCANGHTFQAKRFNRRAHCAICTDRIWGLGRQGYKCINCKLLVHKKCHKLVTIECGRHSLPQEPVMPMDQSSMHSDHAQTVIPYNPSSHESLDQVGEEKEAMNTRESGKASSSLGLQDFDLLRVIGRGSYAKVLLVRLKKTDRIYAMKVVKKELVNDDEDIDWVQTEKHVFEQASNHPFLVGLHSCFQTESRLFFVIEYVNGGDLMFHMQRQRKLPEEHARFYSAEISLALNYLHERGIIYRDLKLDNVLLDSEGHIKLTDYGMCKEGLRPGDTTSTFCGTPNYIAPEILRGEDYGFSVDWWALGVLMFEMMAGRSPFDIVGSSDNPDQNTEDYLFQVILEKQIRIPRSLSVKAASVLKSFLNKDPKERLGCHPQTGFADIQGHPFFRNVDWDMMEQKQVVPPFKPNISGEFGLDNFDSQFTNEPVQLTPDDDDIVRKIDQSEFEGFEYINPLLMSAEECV
Method: as §1, §2

For `O=S(=O)(Nc1ccc(Nc2cc(-c3cccc4ccccc34)ncn2)cc1)c1ccc(Cl)c(Cl)c1` [Example 10, 3,4-Dichloro-N-[4-(6-naphthalen-1-yl-pyrimidin-4-ylamino)-phenyl]-benzenesulfonamide], the IC50 (PKA) was 3 to 16 µM.

Work on `CN1CCC(COc2ccc(-c3cc(Nc4ccc(NS(=O)(=O)c5ccc(F)cc5F)cc4)ncn3)cc2)CC1` [Example 91, 2,4-Difluoro-N-(4-{6-[4-(1-methyl-piperidin-4-ylmethoxy)-phenyl]-pyrimidin-4-ylamino}-phenyl)-benzenesulfonamide formic acid salt] yielded an IC50 (responder T cells) of less than 1 µM.

For `Cc1csc(-c2cc(Nc3ccc(NS(=O)(=O)c4c(F)cccc4F)cc3)ncn2)c1` [Example 117, 2,6-Difluoro-N-{4-[6-(4-methyl-thiophen-2-yl)-pyrimidin-4-ylamino]-phenyl}-benzenesulfonamide], the IC50 (PKCε) was 4 to 21 µM and the IC50 (PKA) was 3 to 16 µM.

For `O=S(=O)(Nc1ccc(Nc2cc(-c3ccc4[nH]ccc4c3)ncn2)cc1)c1cccc(F)c1` [Example 121, 3-Fluoro-N-{4-[6-(1H-indol-5-yl)-pyrimidin-4-ylamino]-phenyl}-benzenesulfonamide], the IC50 (PKA) was 3 to 16 µM.

With `COc1ccc(S(=O)(=O)Nc2ccc(Nc3cc(-c4ccc5c(ccn5CCN(C)C)c4)ncn3)cc2)cc1` [Example 132, N-(4-{6-[1-(2-Dimethylamino-ethyl)-1H-indol-5-yl]-pyrimidin-4-ylamino}-phenyl)-4-methoxy-benzenesulfonamide] the IC50 (PKCδ) was 2 to 18 µM.

`CN(C)CCCn1ccc2cc(-c3cc(Nc4ccc(NS(=O)(=O)c5ccc(F)cc5F)cc4)ncn3)ccc21` [Example 133, N-(4-{6-[1-(3-Dimethylamino-propyl)-1H-indol-5-yl]-pyrimidin-4-ylamino}-phenyl)-2,4-difluorobenzenesulfonamide] gave an IC50 (responder T cells) of less than 1 µM.

`CN(C)CCCn1ccc2cc(-c3cc(Nc4ccc(NS(=O)(=O)c5ccc(F)c(Cl)c5)cc4)ncn3)ccc21` [Example 137, 3-Chloro-N-(4-{6-[1-(3-dimethylamino-propyl)-1H-indol-5-yl]-pyrimidin-4-ylamino}-phenyl)-4-fluoro-benzenesulfonamide] showed an IC50 (responder T cells) of less than 1 µM.

In the case of `CN(C)CCn1ccc2cc(-c3cc(Nc4ccc(NS(=O)(=O)c5ccc(F)c(Cl)c5)cc4)ncn3)ccc21` [Example 138, 3-Chloro-N-{4-[6-[1-(2-dimethylamino-ethyl)-1H-indol-5-yl]pyrimidin-4-ylamino]-phenyl}-4-fluoro-benzenesulfonamide], the IC50 (PKCδ) is reported as 2 to 18 µM.

`COc1ccc(S(=O)(=O)Nc2ccc(Nc3cc(-c4ccc5c(ccn5CCCN5CCCC5)c4)ncn3)cc2)cc1` [Example 145, 4-Methoxy-N-(4-{6-[1-(3-pyrrolidin-1-yl-propyl)-1H-indol-5-yl]-pyrimidin-4-ylamino}-phenyl)-benzenesulfonamide formic acid salt] was tested, and the IC50 (PKCι) was 7 to 34 µM.

`CN1CCN(CCCn2ccc3cc(-c4cc(Nc5ccc(NS(=O)(=O)c6ccc(F)c(Cl)c6)cc5)ncn4)ccc32)CC1` [Example 162, 3-Chloro-4-fluoro-N-[4-(6-{1-[3-(4-methyl-piperazin-1-yl)-propyl]-1H-indol-5-yl}-pyrimidin-4-ylamino)-phenyl]-benzenesulfonamide formic acid salt] showed an IC50 (PKCι) of 7 to 34 µM.

For `CCN(CC)CCCn1ccc2cc(-c3cc(Nc4ccc(NS(=O)(=O)c5ccc(F)cc5F)cc4)ncn3)ccc21` [Example 168, N-(4-{6-[1-(3-Diethylamino-propyl)-1H-indol-5-yl]-pyrimidin-4-ylamino}-phenyl)-2,4-difluoro-benzenesulfonamide formic acid salt], the IC50 (PKCδ) was 2 to 18 µM.
